Test results taken from US7659289B2, “Hydroxyethylene-based β-secretase inhibitors and use thereof” (CoMentis, Inc., priority 2004, dated 2010).

What was measured:
memapsin 2 = memapsin 2 (Homo sapiens, UniProt P56817); test: Inhibition of memapsin 2 beta-secretase activity toward fluorogenic substrate FS-2; type: biochemical; details: pH 4, 37° C., 20 minutes pre-incubation, fluorogenic substrate FS-2, tight-binding model; read-out: M2 Ki
Procedure: Potency of compounds were determined by measurement of their inhibition of memapsin 2 activity toward a fluorescent substrate. […] Briefly, assays were performed at pH 4, 37° C., by pre-incubation of memapsin 2 enzyme with compound for 20 minutes. Activity measure was initiated by addition of a fluorogenic substrate FS-2 (Bachem Americas, Torrance, Calif.). Fluorescent signal increase over time was measured as a rate of hydrolysis of the peptide substrate.

Cathepsin D = Cathepsin D (Homo sapiens, UniProt P07339); test: Inhibition of cathepsin D activity (MALDI-TOF, substrate peptide […]); type: biochemical; details: pH 4.1, 37 degrees C., read-out: Cath D Ki
Procedure: After equilibration at 37 degrees C., the reactions were initiated by the addition of an aliquot of memapsin 2. Aliquots were removed at time intervals, and combined with an equal volume of MALDI-TOF matrix (α-hydroxycinnamic acid in acetone, 20 mg/ml) and immediately spotted in duplicate onto a stainless-steel MALDI sample plate. MALDI-TOF mass spectrometry was performed on a PE Biosystems Voyager DE instrument at the Molecular Biology Resource Center on campus. The instrument was operated at 25,000 accelerating volts in positive mode with a 150 ns delay. Ions with a mass-to-charge ratio (m/z) were detected in the range of 650-2000 atomic mass units. Data was analyzed by the Voyager Data Explorer module to obtain ion intensity data for mass species of substrates and corresponding products in a given mixture. Relative product formation was calculated as the ratio of signal intensity of the product to the sum of signal intensities of both product and the corresponding substrate. Relative product formed per unit time was obtained from non-linear regression analysis of the data representing the initial 15% formation of product using the model: 1−e^−kT,
where k is the relative hydrolytic rate constant and T is time in seconds. Initial rates were expressed relative to uninhibited controls and fit to a tight-binding model of competitive inhibition as above.

Aβ production = test: Cellular Aβ IC50 determination (Aβ40 sandwich ELISA); type: cell-based; details: Cricetulus griseus; Aβ40, Chinese hamster ovary cells over-expressing human APP695 with London and Swedish mutations, 24 h incubation
Procedure: The potency of compounds against memapsin 2 activity was determined in a cellular assay of Aβ production. […] Chinese hamster ovary cells that over-express human APP695 with the London and Swedish mutations were seeded in multi-well plates at 10% confluency. Compounds were dissolved in DMSO to concentrations near 1 mM, and diluted into culture media to a final concentration near 4 μM (final 0.4% DMSO). Compounds were diluted serially and applied to cells in multi-well plates 48 h after seeding. Incubation was continued in 5% CO2 at 37 degrees C. for 24 h. Aliquots were removed and assayed for Aβ40 content using a sandwich ELISA (BioSource International). Amount of Aβ40 over the range of concentration of compounds, relative to control incubations, were fit to a 4-parameter IC50 model.

Sequence of Cathepsin D (P07339 65-412, species assumed): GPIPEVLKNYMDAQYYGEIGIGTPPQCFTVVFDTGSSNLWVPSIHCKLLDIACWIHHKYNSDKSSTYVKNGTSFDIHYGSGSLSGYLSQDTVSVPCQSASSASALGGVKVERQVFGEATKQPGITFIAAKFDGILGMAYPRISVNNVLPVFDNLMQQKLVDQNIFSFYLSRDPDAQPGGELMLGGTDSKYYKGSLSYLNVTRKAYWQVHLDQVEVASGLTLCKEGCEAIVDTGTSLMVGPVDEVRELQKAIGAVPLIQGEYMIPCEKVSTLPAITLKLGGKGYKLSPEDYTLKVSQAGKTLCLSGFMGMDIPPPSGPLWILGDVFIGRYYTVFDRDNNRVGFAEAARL
Sequence of memapsin 2 (P56817 46-501): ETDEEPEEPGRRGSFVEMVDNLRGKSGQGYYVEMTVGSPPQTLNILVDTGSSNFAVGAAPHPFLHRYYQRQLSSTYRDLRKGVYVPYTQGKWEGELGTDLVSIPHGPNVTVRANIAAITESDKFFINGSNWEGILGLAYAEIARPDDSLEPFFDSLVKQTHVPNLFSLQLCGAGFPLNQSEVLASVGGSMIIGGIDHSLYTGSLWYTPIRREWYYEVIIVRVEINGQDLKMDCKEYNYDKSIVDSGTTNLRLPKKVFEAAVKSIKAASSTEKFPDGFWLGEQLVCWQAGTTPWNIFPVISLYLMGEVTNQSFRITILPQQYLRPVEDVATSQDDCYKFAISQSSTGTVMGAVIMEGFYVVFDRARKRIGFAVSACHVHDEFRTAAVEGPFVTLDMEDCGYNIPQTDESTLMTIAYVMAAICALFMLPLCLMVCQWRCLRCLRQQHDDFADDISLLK

CC(=O)NC[C@H](NC(=O)[C@@H](C)Cc1nc(C)cs1)C(=O)N[C@@H](CC(C)C)[C@@H](O)C[C@@H](C)C(=O)N[C@H](C(=O)NCC(C)C)C(C)C [(2R,4S,5S)-5-((S)-3-acetamido-2-((S)-2-methyl-3-(4-methylthiazol-2-yl)propanamido)propanamido)-4-hydroxy-N-((S)-1-(isobutylamino)-3-methyl-1-oxobutan-2-yl)-2,7-dimethyloctanamide]
Ki (memapsin 2): < 100 nM | Ki (Cathepsin D): 100 to 600 nM | IC50 (Aβ production): 6 to 100 µM

Cc1csc(C[C@H](C)C(=O)N[C@@H](CN)C(=O)N[C@@H](CC(C)C)[C@@H](O)C[C@@H](C)C(=O)N[C@H](C(=O)NCC(C)C)C(C)C)n1 [(2R,4S,5S)-5-((S)-3-amino-2-((S)-2-methyl-3-(4-methylthiazol-2-yl)propanamido)propanamido)-4-hydroxy-N-((S)-1-(isobutylamino)-3-methyl-1-oxobutan-2-yl)-2,7-dimethyloctanamide]
Ki (memapsin 2): 100 to 600 nM | Ki (Cathepsin D): 100 to 600 nM | IC50 (Aβ production): 6 to 100 µM

Cc1csc(COC(=O)NC[C@H](NC(=O)[C@@H](C)Cc2nc(C)cs2)C(=O)N[C@@H](CC(C)C)[C@@H](O)C[C@@H](C)C(=O)N[C@H](C(=O)NCC(C)C)C(C)C)n1 [(4-methylthiazol-2-yl)methyl (S)-3-((4S,5S,7R)-5-hydroxy-8-((S)-1-(isobutylamino)-3-methyl-1-oxobutan-2-ylamino)-2,7-dimethyl-8-oxooctan-4-ylamino)-2-((S)-2-methyl-3-(4-methylthiazol-2-yl)propanamido)-3-oxopropylcarbamate]
Ki (memapsin 2): < 100 nM | Ki (Cathepsin D): < 100 nM | IC50 (Aβ production): < 6 µM

Cc1csc(C[C@H](C)C(=O)N[C@@H](CNC(=O)O[C@@H]2CCOC2)C(=O)N[C@@H](CC(C)C)[C@@H](O)C[C@@H](C)C(=O)N[C@H](C(=O)NCC(C)C)C(C)C)n1 [(R)-tetrahydrofuran-3-yl (S)-3-((4S,5S,7R)-5-hydroxy-8-((S)-1-(isobutylamino)-3-methyl-1-oxobutan-2-ylamino)2,7-dimethyl-8-oxooctan-4-ylamino)-2-((S)-2-methyl-3-(4-methylthiazol-2-yl)propanamido)-3-oxopropylcarbamate]
Ki (memapsin 2): < 100 nM | Ki (Cathepsin D): < 100 nM | IC50 (Aβ production): < 6 µM

Cc1cc(C)n(C[C@H](C)C(=O)N[C@@H](CNC(=O)O[C@H]2CCOC2)C(=O)N[C@@H](CC(C)C)[C@@H](O)C[C@@H](C)C(=O)N[C@H](C(=O)NCC(C)C)C(C)C)n1 [(S)-tetrahydrofuran-3-yl (S)-2-((S)-3-(3,5-dimethyl-1H-pyrazol-1-yl)-2-methylpropanamido)-3-((4S,5S,7R)-5-hydroxy-8-((S)-1-(isobutylamino)-3-methyl-1-oxobutan-2-ylamino)-2,7-dimethyl-8-oxooctan-4-ylamino)-3-oxopropylcarbamate]
Ki (memapsin 2): < 100 nM | Ki (Cathepsin D): < 100 nM | IC50 (Aβ production): 6 to 100 µM

Cc1csc(C[C@H](C)C(=O)N[C@@H](CNC(=O)O[C@H]2CCOC2)C(=O)N[C@@H](CC(C)C)[C@@H](O)C[C@@H](C)C(=O)N[C@H](C(=O)NCC(C)C)C(C)C)n1 [(S)-tetrahydrofuran-3-yl(S)-3-((4S,5S,7R)-5-hydroxy-8-((S)-1-(isobutylamino)-3-methyl-1-oxobutan-2-ylamino)2,7-dimethyl-8-oxooctan-4-ylamino)-2-((S)-2-methyl-3-(4-methylthiazol-2-yl)propanamido)-3-oxopropylcarbamate]
Ki (memapsin 2): < 100 nM | Ki (Cathepsin D): < 100 nM | IC50 (Aβ production): < 6 µM

CC[C@@H](Cc1nc(C)cs1)C(=O)N[C@@H](CNC(=O)OC(C)C)C(=O)N[C@@H](CC(C)C)[C@@H](O)C[C@@H](C)C(=O)N[C@H](C(=O)NCC(C)C)C(C)C [isoproyl (S)-3-((4S,5S,7R)-5-hydroxy-8-((S)-1-(isobutylamino)-3-methyl-1-oxobutan-2-ylamino)-2,7-dimethyl-8-oxooctan-4-ylamino)-2-((S)-2-((4-methylthiazol-2-yl)methyl)butanamido)-3-oxopropylcarbamate]
Ki (memapsin 2): < 100 nM | Ki (Cathepsin D): < 100 nM | IC50 (Aβ production): < 6 µM

COC(=O)NC[C@H](NC(=O)[C@@H](C)Cc1nc(C)cs1)C(=O)N[C@@H](CC(C)C)[C@@H](O)C[C@@H](C)C(=O)N[C@H](C(=O)NCC(C)C)C(C)C [methyl (S)-3-((4S,5S,7R)-5-hydroxy-8-((S)-1-(isobutylamino)-3-methyl-1-oxobutan-2-ylamino)-2,7-dimethyl-8-oxooctan-4-ylamino)-2-((S)-2-methyl-3-(4-methylthiazol-2-yl)propanamido)-3-oxopropylcarbamate]
Ki (memapsin 2): < 100 nM | Ki (Cathepsin D): < 100 nM | IC50 (Aβ production): < 6 µM

Cc1cc(C)n(CC(N)C(=O)N[C@@H](CNC(=O)OC(C)(C)C)C(=O)N[C@@H](CC(C)C)[C@@H](O)C[C@@H](C)C(=O)N[C@H](C(=O)NCC(C)C)C(C)C)n1 (stereo partly drawn) [tert-butyl (2S)-2-(2-amino-3-(3,5-dimethyl-1H-pyrazol-1-yl)propanamido)-3-((4S,5S,7R)-5-hydroxy-8-((S)-1-(isobutylamino)-3-methyl-1-oxobutan-2-ylamino)-2,7-dimethyl-8-oxooctan-4-ylamino)-3-oxopropylcarbamate]
Ki (memapsin 2): 100 to 600 nM | Ki (Cathepsin D): 100 to 600 nM | IC50 (Aβ production): > 100 µM

Cc1cc(C)n(CC(N=[N+]=[N-])C(=O)N[C@@H](CNC(=O)OC(C)(C)C)C(=O)N[C@@H](CC(C)C)[C@@H](O)C[C@@H](C)C(=O)N[C@H](C(=O)NCC(C)C)C(C)C)n1 (stereo partly drawn) [tert-butyl (2S)-2-(2-azido-3-(3,5-dimethyl-1H-pyrazol-1-yl)propanamido)-3-((4S,5S,7R)-5-hydroxy-8-((S)-1-(isobutylamino)-3-methyl-1-oxobutan-2-ylamino)-2,7-dimethyl-8-oxooctan-4-ylamino)-3-oxopropylcarbamate]
Ki (memapsin 2): 100 to 600 nM | Ki (Cathepsin D): < 100 nM | IC50 (Aβ production): 6 to 100 µM

COC(Cn1nc(C)cc1C)C(=O)N[C@@H](CNC(=O)OC(C)(C)C)C(=O)N[C@@H](CC(C)C)[C@@H](O)C[C@@H](C)C(=O)N[C@H](C(=O)NCC(C)C)C(C)C (stereo partly drawn) [tert-butyl (2S)-2-(3-(3,5-dimethyl-1H-pyrazol-1-yl)-2-methoxypropanamido)-3-((4S,5S,7R)-5-hydroxy-8-((S)-1-(isobutylamino)-3-methyl-1-oxobutan-2-ylamino)-2,7-dimethyl-8-oxooctan-4-ylamino)-3-oxopropylcarbamate]
Ki (memapsin 2): 100 to 600 nM | Ki (Cathepsin D): < 100 nM | IC50 (Aβ production): > 100 µM

CC[C@@H](Cn1nc(C)cc1C)C(=O)N[C@@H](CNC(=O)OC(C)(C)C)C(=O)N[C@@H](CC(C)C)[C@@H](O)C[C@@H](C)C(=O)N[C@H](C(=O)NCC(F)(F)F)C(C)C [tert-butyl (S)-2-((S)-2-((3,5-dimethyl-1H-pyrazol-1-yl)methyl)butanamido)-3-((4S,5S,7R)-5-hydroxy-2,7-dimethyl-8-((S)-3-methyl-1-oxo-1-(2,2,2-trifluoroethylamino)butan-2-ylamino)-8-oxooctan-4-ylamino)-3-oxopropylcarbamate]
Ki (memapsin 2): < 100 nM | Ki (Cathepsin D): < 100 nM | IC50 (Aβ production): 6 to 100 µM

CC[C@@H](Cn1nc(C)cc1C)C(=O)N[C@@H](CNC(=O)OC(C)(C)C)C(=O)N[C@@H](CC(C)C)[C@@H](O)C[C@@H](C)C(=O)N[C@H](C(=O)NCC(C)C)C(C)C [tert-butyl (S)-2-((S)-2-((3,5-dimethyl-1H-pyrazol-1-yl)methyl)butanamido)-3-((4S,5S,7R)-5-hydroxy-8-((S)-1-(isobutylamino)-3-methyl-1-oxobutan-2-ylamino)-2,7-dimethyl-8-oxooctan-4-ylamino)-3-oxopropylcarbamate]
Ki (memapsin 2): < 100 nM | Ki (Cathepsin D): < 100 nM | IC50 (Aβ production): < 6 µM
